Values of other authors as cited in patent US12629339B2, “Lithium salt extended-release formulations; methods of making; and methods of use thereof” (Almatica Pharma LLC, priority 2023, dated 2026).

Conditions: serum lithium level

[Li] [lithium]
Toxic concentration of lithium: ≥ 1.5 mEq/L
